Test results: publication PMC8342005, “A two-step resin based approach to reveal survivin-selective fluorescent probes” (RSC Chemical Biology, 2020)

Key:
survivin [1] = target: T1, survivin (Homo sapiens, UniProt O15392); experiment: fluorescence intensity titration of the intrinsically fluorescent ligand with survivin; also CONA bead imaging and affinity resin capture; type: binding
T1 construct: gene BIRC5; His6-tagged full length survivin

survivin [2] = target: T1, survivin; experiment: fluorescence intensity titration of the intrinsically fluorescent ligand with survivin ([…] fit); also CONA bead imaging, affinity resin capture, native PAGE; type: binding

T1 sequence (O15392 whole entry): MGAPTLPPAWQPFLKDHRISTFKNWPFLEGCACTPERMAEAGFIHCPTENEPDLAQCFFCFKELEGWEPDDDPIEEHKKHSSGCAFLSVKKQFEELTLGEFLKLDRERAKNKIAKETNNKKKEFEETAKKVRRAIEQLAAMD

SMILES	Kd (survivin [1]) [µM]	Kd (survivin [2]) [µM]
COc1cc2[nH]c1/C=C1/C=CC(=N1)CCCCCCCCCc1ccc-2[nH]1 [compound 1, cyclononylprodigiosin]	149 ± 8.3	–
CCCCCC1=C/C(=C/c2[nH]c(-c3ccc[nH]3)cc2OC)N=C1C [compound 2, prodigiosin]	–	11.5 ± 3.1
